Reference: patent publication US20050197350A1, “Novel quinoline, tetrahydroquinazoline, and pyrimidine derivatives and methods of treatment related to the use thereof” (TAISHO PHARMACEUTICAL CO., LTD., priority 2003, published 2005)

Each compound was assayed on MCH receptors (assay: MCH receptor activity class (method not given)). Conditions: not given.

Row | class | Structure (SMILES)
1 | 1 | Cc1cc(N(C)C)nc(N[C@H]2CC[C@@H](C(=O)NCc3ccccc3OC(F)(F)F)CC2)n1 [Example 2587, cis-4-{[4-(dimethylamino)-6-methylpyrimidin-2-yl]amino}-N-[2-(trifluoromethoxy)benzyl]cyclohexanecarboxamide]
2 | 1 | Cc1cc(N(C)C)nc(N[C@H]2CC[C@@H](C(=O)NCc3cccc(Cl)c3)CC2)n1 [Example 2577, cis-N-(3-chlorobenzyl)-4-{[4-(dimethylamino)-6-methylpyrimidin-2-yl]amino}cyclohexanecarboxamide]

Same assay, conditions: MCH receptor activity class 1-3 (percent of control at 10^-7 M or IC50)

Row | Structure (SMILES) | class
3 | COC(=O)c1scc(C)c1NC(=S)N[C@H]1CC[C@@H](Nc2cc(N(C)C)c3ccccc3n2)CC1 [compound 2311] | 2 (Class 2: The value of percent of control at 10^−7 M was from 40% to 60% or the value of IC′50 was from 50 nM to 200 nM.)
4 | CN(C)c1cc(N[C@H]2CC[C@@H](CNC(=O)NC(c3ccccc3)c3ccccc3)CC2)nc2ccccc12 [compound 2389, N-[(cis-4-{[4-(dimethylamino)quinolin-2-yl]amino}cyclohexyl)methyl]-N′-(diphenylmethyl)urea] | 2 (Class 2: The value of percent of control at 10^−7 M was from 40% to 60% or the value of IC′50 was from 50 nM to 200 nM.)

Same assay, conditions: MCH receptor; class by percent of control at 10^-7 M or IC50

Row | Structure (SMILES) | class
5 | CN(C)c1nc(N[C@H]2CC[C@@H](NC(=S)Nc3cccc(C(=O)O)c3)CC2)nc2c1CCCC2 [compound 2009] | 3 (Class 3 The value of percent of control at 10^−7 M was more than 60% or the value of IC50 was more than 200 nM.)
6 | CN(C)c1ccc(/N=N/c2ccc(NC(=S)N[C@H]3CC[C@@H](Nc4nc5c(c(N(C)C)n4)CCCC5)CC3)cc2)cc1 [compound 2077] | 3 (Class 3 The value of percent of control at 10^−7 M was more than 60% or the value of IC50 was more than 200 nM.)
7 | COC(=O)c1ccc(NC(=S)N[C@H]2CC[C@@H](Nc3nc4c(c(N(C)C)n3)CCCC4)CC2)cc1 [compound 2019] | 3 (Class 3 The value of percent of control at 10^−7 M was more than 60% or the value of IC50 was more than 200 nM.)

Same assay, conditions: activity class 1-3: percent of control at 10^-7 M or IC50

Row | Structure (SMILES) | class
8 | CN(C)c1nc(N[C@H]2CC[C@@H](NC(=O)Nc3ccc(C#N)cc3)CC2)nc2c1CCCC2 [compound 1688] | 3 (Class 3 The value of percent of control at 10^−7 M was more than 60% or the value of IC50 was more than 200 nM.)
9 | CN(C)c1nc(NC2CCC(CNC(=O)OCc3ccccc3)CC2)nc2c1CCCC2 (centres unmarked) [compound 1611] | 3 (Class 3 The value of percent of control at 10^−7 M was more than 60% or the value of IC50 was more than 200 nM.)
10 | CN(C)c1ccnc(N[C@H]2CC[C@@H](NC(=O)OCc3ccc([N+](=O)[O-])cc3)CC2)n1 [compound 1628] | 3 (Class 3 The value of percent of control at 10^−7 M was more than 60% or the value of IC50 was more than 200 nM.)

Same assay, conditions: activity class per percent of control at 10^-7 M or IC50

Row | Structure (SMILES) | class
11 | CN(C)c1nc(N[C@H]2CC[C@@H](NC(=O)c3c4ccccc4cc4ccccc34)CC2)nc2c1CCCC2 [compound 1029] | 3 (Class 3 The value of percent of control at 10^−7 M was more than 60% or the value of IC50 was more than 200 nM.)
12 | CN(C)c1nc(N[C@H]2CC[C@@H](NC(=O)c3ccccc3Oc3ccccc3)CC2)nc2c1CCCC2 [compound 1030] | 1 (Class 1: The value of percent of control at 10^−7 M was less than 40% or the value of IC50 was less than 50 nM.)
13 | CN(C)c1nc(N[C@H]2CC[C@@H](NC(=O)c3cc(Cl)ccc3O)CC2)nc2c1CCCC2 [compound 1055] | 1 (Class 1: The value of percent of control at 10^−7 M was less than 40% or the value of IC50 was less than 50 nM.)
14 | COc1ccccc1/C=C/CN[C@H]1CC[C@@H](Nc2cc(N(C)C)c3ccccc3n2)CC1 [compound 1112] | 3 (Class 3 The value of percent of control at 10^−7 M was more than 60% or the value of IC50 was more than 200 nM.)

Same assay, conditions: class 1-3 by percent of control at 10^-7 M or IC50

Row | Structure (SMILES) | class
15 | CN(C)c1nc(N[C@H]2CC[C@@H](NC(=O)C3=Cc4cc(Cl)ccc4OC3)CC2)nc2c1CCCC2 [compound 578] | 3 (Class 3 The value of percent of control at 10^−7 M was more than 60% or the value of IC50 was more than 200 nM.)

Same assay, conditions: class by percent of control at 10^-7 M or IC50

Row | Structure (SMILES) | class
16 | CN(C)c1nc(N[C@H]2CC[C@@H](CNCc3cc(C(F)(F)F)cc(Cl)c3F)CC2)nc2c1CCCC2 [compound 1439] | 3 (Class 3 The value of percent of control at 10^−7 M was more than 60% or the value of IC50 was more than 200 nM.)
17 | Cc1cc(C)c(NC(=O)Nc2ccc(OC(F)(F)F)cc2)c(C(=O)N[C@H]2CC[C@@H](Nc3nccc(N(C)C)n3)CC2)c1 [compound 857] | 3 (Class 3 The value of percent of control at 10^−7 M was more than 60% or the value of IC50 was more than 200 nM.)
18 | Cc1cc(C)c(NC(=S)N[C@H]2CC[C@@H](Nc3nc4c(c(N(C)C)n3)CCCC4)CC2)cc1C [compound 1769] | 3 (Class 3 The value of percent of control at 10^−7 M was more than 60% or the value of IC50 was more than 200 nM.)
19 | CN(C)c1nc(N[C@H]2CC[C@@H](NC(=O)NC(=O)c3ccccc3)CC2)nc2c1CCCC2 [compound 1809] | 3 (Class 3 The value of percent of control at 10^−7 M was more than 60% or the value of IC50 was more than 200 nM.)
20 | CN(C)c1nc(N[C@H]2CC[C@@H](NCCN(CCC#N)c3ccccc3)CC2)nc2c1CCCC2 [compound 1490] | 1 (Class 1: The value of percent of control at 10^−7 M was less than 40% or the value of IC50 was less than 50 nM.)
21 | CCc1ccccc1CNC[C@H]1CC[C@@H](Nc2nc3c(c(N(C)C)n2)CCCC3)CC1 [compound 1443] | 3 (Class 3 The value of percent of control at 10^−7 M was more than 60% or the value of IC50 was more than 200 nM.)
22 | CN(C)c1ccnc(N[C@H]2CC[C@@H](NC(=O)C3CCCC3)CC2)n1 [compound 343] | 3 (Class 3 The value of percent of control at 10^−7 M was more than 60% or the value of IC50 was more than 200 nM.)
23 | CN(C)c1ccnc(N[C@H]2CC[C@@H](NC(=O)Cc3cccs3)CC2)n1 [compound 271] | 3 (Class 3 The value of percent of control at 10^−7 M was more than 60% or the value of IC50 was more than 200 nM.)
24 | Cc1ccc(F)c(NC(=O)N[C@H]2CC[C@@H](Nc3nc4c(c(N(C)C)n3)CCCC4)CC2)c1 [compound 1860] | 3 (Class 3 The value of percent of control at 10^−7 M was more than 60% or the value of IC50 was more than 200 nM.)
25 | CN(C)c1cc(N[C@H]2CC[C@@H](NC(=O)Cc3ccc(Oc4ccccc4)cc3)CC2)nc2ccccc12 [compound 728] | 3 (Class 3 The value of percent of control at 10^−7 M was more than 60% or the value of IC50 was more than 200 nM.)
26 | CN(C)c1nc(N[C@H]2CC[C@@H](NC(=O)Nc3cc(F)cc(C(F)(F)F)c3)CC2)nc2c1CCCC2 [compound 1872] | 3 (Class 3 The value of percent of control at 10^−7 M was more than 60% or the value of IC50 was more than 200 nM.)
27 | CN(C)c1nc(N[C@H]2CC[C@@H](NC(=O)Nc3ccccc3OC(F)F)CC2)nc2c1CCCC2 [compound 1843] | 3 (Class 3 The value of percent of control at 10^−7 M was more than 60% or the value of IC50 was more than 200 nM.)
28 | CCOc1ccc(OCC)c(CNC[C@H]2CC[C@@H](Nc3nc4c(c(N(C)C)n3)CCCC4)CC2)c1 [compound 1411] | 1 (Class 1: The value of percent of control at 10^−7 M was less than 40% or the value of IC50 was less than 50 nM.)

Same assay, conditions: class by percent of control at 10^−7 M or IC50

Row | Structure (SMILES) | class
29 | Cc1cnc(NC[C@H]2CC[C@@H](NC(=O)c3ccc4c(c3)OC(F)(F)O4)CC2)nc1N(C)C [compound 2730] | 3 (Class 3 The value of percent of control at 10^−7 M was more than 60% or the value of IC50 was more than 200 nM.)
